Experiments:
[1] = molecular target: T1, Bile acid receptor (Homo sapiens) (UniProt Q96RI1); experiment: Agonist activity at human GST-fused FXR LBD assessed as cofactor peptide interaction with receptor ligand binding domain by FRET assay relative to GW-4064
T1 sequence (whole entry): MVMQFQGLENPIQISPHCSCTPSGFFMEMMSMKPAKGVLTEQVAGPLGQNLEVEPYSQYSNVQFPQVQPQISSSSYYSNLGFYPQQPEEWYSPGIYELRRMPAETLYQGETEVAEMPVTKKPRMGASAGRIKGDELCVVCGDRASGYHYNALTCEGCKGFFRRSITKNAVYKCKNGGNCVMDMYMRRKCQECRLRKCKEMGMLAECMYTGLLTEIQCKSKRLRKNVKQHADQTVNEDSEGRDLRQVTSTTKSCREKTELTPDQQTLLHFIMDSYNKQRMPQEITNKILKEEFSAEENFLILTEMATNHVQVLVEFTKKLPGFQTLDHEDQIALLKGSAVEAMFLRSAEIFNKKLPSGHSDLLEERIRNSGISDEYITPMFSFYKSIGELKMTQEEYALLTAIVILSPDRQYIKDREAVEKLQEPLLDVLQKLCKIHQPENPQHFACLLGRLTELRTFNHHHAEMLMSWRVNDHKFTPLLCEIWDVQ

[2] = molecular target: T1, Bile acid receptor (Homo sapiens); experiment: Agonist activity at human […] FXR LBD expressed in HEK293 cells coexpressing GAL4-DNA bindig domain and pFRluc by mammalian one-hybrid assay relative to GW-4064; assay type: functional, cell-based
[3] = molecular target: T1, Bile acid receptor (Homo sapiens); experiment: Agonist activity at human full length FXR transfected in HEK293 cells coexpressing pTRexDest/pGL2promotor assessed as luciferase activity by direct reporter cellular assay relative to GW-4064; assay type: functional, cell-based
[4] = molecular target: T2, Glucocorticoid receptor (Homo sapiens, UniProt P04150); experiment: Agonist activity at GR-LBD expressed in HEK293 cells assessed as Gal4-DBD interaction by cellular mammalian one hybrid assay; assay type: functional, cell-based
T2 sequence (P04150 whole entry): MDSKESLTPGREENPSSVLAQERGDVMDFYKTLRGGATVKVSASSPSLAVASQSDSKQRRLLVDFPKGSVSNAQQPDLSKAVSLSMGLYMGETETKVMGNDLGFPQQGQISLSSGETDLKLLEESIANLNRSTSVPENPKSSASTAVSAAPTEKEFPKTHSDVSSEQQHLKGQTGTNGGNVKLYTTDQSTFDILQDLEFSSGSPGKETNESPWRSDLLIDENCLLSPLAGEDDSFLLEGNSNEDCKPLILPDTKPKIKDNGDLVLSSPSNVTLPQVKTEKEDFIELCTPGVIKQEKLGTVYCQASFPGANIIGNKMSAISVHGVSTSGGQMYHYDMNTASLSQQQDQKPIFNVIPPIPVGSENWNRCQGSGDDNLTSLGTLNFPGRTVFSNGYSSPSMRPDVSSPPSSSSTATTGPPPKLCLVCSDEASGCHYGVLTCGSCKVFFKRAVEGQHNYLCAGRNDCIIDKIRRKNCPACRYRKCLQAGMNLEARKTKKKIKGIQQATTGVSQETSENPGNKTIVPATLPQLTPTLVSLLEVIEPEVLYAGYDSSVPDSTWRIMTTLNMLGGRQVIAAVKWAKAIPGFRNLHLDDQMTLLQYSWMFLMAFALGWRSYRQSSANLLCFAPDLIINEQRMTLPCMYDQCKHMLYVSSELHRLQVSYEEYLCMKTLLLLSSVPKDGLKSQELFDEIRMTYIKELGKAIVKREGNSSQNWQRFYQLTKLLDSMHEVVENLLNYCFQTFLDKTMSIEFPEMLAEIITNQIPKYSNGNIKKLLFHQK

[5] = molecular target: T3, Oxysterols receptor LXR-beta (Homo sapiens) (UniProt P55055); experiment: Agonist activity at LXRbeta-LBD expressed in HEK293 cells assessed as Gal4-DBD interaction by cellular mammalian one hybrid assay relative to T0901317; assay type: functional, cell-based
T3 sequence (whole entry): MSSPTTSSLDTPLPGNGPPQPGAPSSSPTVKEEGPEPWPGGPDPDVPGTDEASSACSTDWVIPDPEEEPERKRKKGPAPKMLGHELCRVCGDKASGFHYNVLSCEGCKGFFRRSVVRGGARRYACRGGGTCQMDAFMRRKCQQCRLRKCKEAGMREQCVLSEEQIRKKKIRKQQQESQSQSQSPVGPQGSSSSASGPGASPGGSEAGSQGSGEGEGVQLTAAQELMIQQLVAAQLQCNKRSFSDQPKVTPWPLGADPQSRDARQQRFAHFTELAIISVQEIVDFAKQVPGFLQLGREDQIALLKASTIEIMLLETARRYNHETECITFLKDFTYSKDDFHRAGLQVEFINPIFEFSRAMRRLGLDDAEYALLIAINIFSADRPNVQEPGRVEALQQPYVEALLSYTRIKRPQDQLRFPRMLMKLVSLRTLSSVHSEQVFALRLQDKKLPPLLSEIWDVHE

[6] = molecular target: T4, Thyroid hormone receptor alpha (Homo sapiens, UniProt P10827); experiment: Agonist activity at TRalpha-LBD expressed in HEK293 cells assessed as Gal4-DBD interaction by cellular mammalian one hybrid assay; assay type: functional, cell-based
T4 sequence (P10827 whole entry): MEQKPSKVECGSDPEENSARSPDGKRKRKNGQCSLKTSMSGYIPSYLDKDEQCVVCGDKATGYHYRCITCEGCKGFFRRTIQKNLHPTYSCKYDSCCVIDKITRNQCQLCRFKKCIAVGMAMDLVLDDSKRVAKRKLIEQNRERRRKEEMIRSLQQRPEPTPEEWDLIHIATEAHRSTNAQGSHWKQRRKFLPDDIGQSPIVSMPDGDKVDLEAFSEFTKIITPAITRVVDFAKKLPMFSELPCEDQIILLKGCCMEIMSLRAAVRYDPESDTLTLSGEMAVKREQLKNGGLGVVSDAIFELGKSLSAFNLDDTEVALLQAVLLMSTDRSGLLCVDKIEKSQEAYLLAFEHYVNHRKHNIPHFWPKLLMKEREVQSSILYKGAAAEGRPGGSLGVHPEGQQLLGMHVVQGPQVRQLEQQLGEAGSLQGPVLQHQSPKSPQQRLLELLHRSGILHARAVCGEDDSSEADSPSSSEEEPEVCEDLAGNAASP

Row | Efficacy [1] [%] | Efficacy [2] [%] | Efficacy [3] [%] | EC50 [4] [µM] | Efficacy [5] [%] | EC50 [6] [µM] | SMILES
1 | 102 | 79 | 43 | > 10 | 0 | > 10 | CN(Cc1cccc(C(=O)O)c1)c1ccc(OCc2c(-c3c(Cl)cccc3Cl)noc2C2CC2)nc1C(F)(F)F
2 | 97 | 75 | 57 | > 10 | 0 | > 10 | CC(C)c1onc(-c2c(Cl)cccc2Cl)c1COc1ccc(N(C)Cc2ccc(C(=O)O)cc2)c(C(F)(F)F)n1
3 | 109 | 81 | 60 | > 10 | 0 | > 10 | CN(Cc1ccc(C(=O)O)cc1)c1ccc(OCc2c(-c3c(Cl)cccc3Cl)noc2C2CC2)nc1C(F)(F)F

— ChEMBL document CHEMBL1208782, “Synthesis and pharmacological validation of a novel series of non-steroidal FXR agonists” (Bioorg Med Chem Lett, 2010)
